The record followed here is US11225505B2, “Antimicrobial polymyxin derivative compounds” (MONASH UNIVERSITY, priority 2015, dated 2022).

Converted amounts (≈) assume the structure as drawn. Where a SMILES comes first, the peptide text is derived from it. Bridges are numbered along the chain shown (N, C = ends). [ ]: non-standard residue; d: D form. The star is where a group is joined. X1 = O=C(c1ncc(Cl)cc1Cl)*; Dab = NCC[C@H](N)C(=O)O; Abu = CC[C@H](N)C(=O)O; Dap = NC[C@H](N)C(=O)O

Data set [1] deals with Acinetobacter baumannii FADDI-AB030. Kind of data set: microbe, parasite or virus in culture. In kind it is cell-based. Conditions: FADDI-AB030. In outline:
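Broth microdilution MIC in cation-adjusted Mueller-Hinton broth per CLSI M100-S24; lipopeptides tested as TFA salts. FADDI-AB030 is a multidrug-resistant clinical isolate. Polymyxin B sulphate served as control.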

Data set [2] deals with A. baumannii FADDI-AB030. Put plainly: In vivo efficacy in a neutropenic mouse lung infection model. Conditions: 24 h. Also noted: species or system Acinetobacter baumannii. Here is the method:
The in vivo efficacy of several compounds was examined in a neutropenic mouse lung infection model against the clinical isolate A. baumannii FADDI-AB030. This Gram-negative isolate is highly multi drug-resistant as illustrated in Table 7.
FADDI-AB030 was subcultured on nutrient agar plates from the −80° C. stock. One colony of the bacterial strain was dispersed in 10-mL CAMHB and incubated overnight. On day 2, an aliquot (0.2 mL) of overnight culture suspension was dispersed in 20-mL CAMHB and incubated for 1.5-2.5 h for production of early log-phase growth bacterial culture. The bacteria in the early log-phase growth suspension were concentrated by centrifugation (3,220 g for 10 min) and re-suspended in sterile 0.9% saline for inoculation into mice. The bacterial cell concentration (colony forming unit [CFU]/mL) in saline was estimated by determining the optical density (OD) of the suspension at 600 nm, and confirmed by plating the suspension on nutrient agar plates. […]
Lung infection was produced as follows. […] Bacterial burdens in lungs were determined at 2 h after inoculation (untreated controls) and 24 h later (untreated controls and compound-treated mice). […] The bacterial colonies on the agar plate were counted and the log10 CFU/lung in each mouse was calculated (FIG. 1). […]

The subject of data set [3] is mice. Put plainly: Acute toxicity observed in the mouse lung infection study. It is filed as in vivo. Conditions: up to 180 mg/kg total dose (four times the polymyxin B dose). How it is done: Lung infection was produced as follows. Mice (n=4) were anaesthetised by inhalation of 2% to 5% isoflurane in oxygen and rested in the supine position against a restraining board which was angled at 60-70° from the horizontal. Each mouse was inoculated with 25 μL of bacterial suspension in saline (˜10^6 bacterial cells in early logarithmic growth phase) sprayed directly into the trachea above the carina using a MicroSprayer® Aerosolizer (model IA-1C; Penn-Century, Philadelphia, Pa., USA). After discharge of the bacterial aerosol, mice were held upright on the restraining board for 2 min and then placed on a warm pad for recovery from anaesthesia. Treatment with polymyxin B and Compound 1, 3, 6 and 18 (intraperitoneal injection of dose-fractionated regimens across the daily dose) was initiated 2 h following inoculation. […] This was the highest dose of polymyxin B that could be safely administered without adverse effects, i.e. acute toxicity. Bacterial burdens in lungs were determined at 2 h after inoculation (untreated controls) and 24 h later (untreated controls and compound-treated mice). Animals were euthanised at 24 h by inhalation of overdose isoflurane. The skin on the chest and fore-paws of each animal was thoroughly cleansed with 70% ethanol and Betadine®. […] The bacterial colonies on the agar plate were counted and the log10 CFU/lung in each mouse was calculated (FIG. 1). […]

In data set [1], `CC[C@@H]1NC(=O)[C@@H](CC(C)C)NC(=O)[C@H](CCN)NC(=O)[C@@H](NC(=O)[C@H](CN)NC(=O)[C@@H](NC(=O)[C@H](CCN)NC(=O)c2ncc(Cl)cc2Cl)[C@@H](C)O)CCNC(=O)[C@H]([C@@H](C)O)NC(=O)[C@H](CCN)NC(=O)[C@H](CCN)NC1=O` [Compound 1] (X1-[Dab]T[Dap][Dab][Dab][dL][Abu][Dab][Dab]T; lactam 4-C) showed a Minimum inhibitory concentration of 1 µg/mL (≈ 0.861 µM). Moreover, in data set [2] (45 mg/kg total, neutropenic mice), the “in vivo antibacterial efficacy (bacterial burden in lung, FIG. 1) compared with polymyxin B at the same dose” value is “improved in vivo antibacterial efficacy”. In addition, the “bacterial cells in the lung (FIG. 2)” value in data set [2] (total doses of 90 and 180 mg/kg) is reported as “no longer detectable in the lung”. In addition, the acute toxicity result in data set [3] is on record as “without any observable acute toxicity”.
